Ten compounds from patent publication US20220056018A1, “SREBP INHIBITORS COMPRISING A THIOPHENE CENTRAL RING” (Capulus Therapeutics, LLC, priority 2019, published 2022) can be followed below.

The nature of data set [1]: Stability in human liver microsomes. The format is in vitro ADME. The note with it: 37° C., NADPH. The procedure:
Half-Life Human Microsomes:
(§1) Compounds were evaluated for stability in human liver microsomes. A 10 mM stock solution of the compound being evaluated was prepared in DMSO and diluted with water:acetonitrile (1:1) to a concentration of 1 mM. A working concentration of 100 μM was prepared by further dilution with water:acetonitrile (1:1). To make the preincubation mixture, 2.5 μL of the diluted compound was combined with 75 μL of human liver microsomes at 3.33 mg/mL, and 85 μL of 100 mM potassium phosphate buffer, and this mixture was pre-incubated for 10 min at 37° C. To make the 60 minute mixture without cofactor, 32.5 μL of the preincubation mixture was combined with 17.5 μL of 100 mM potassium phosphate buffer and incubated for 60 min at 37° C. To make the 0 min sample with cofactor (NADPH), 16.25 μL of the preincubation mixture was combined with 200 μL of acetonitrile containing internal standard and 8.75 μL of cofactor (NADPH). To make the incubation mixture, 62 μL of cofactor (2.85 mM) was combined with the remaining incubation mixture, and incubated for 60 min at 37° C. To prepare the sample mixture to be evaluated, 25 μL incubation mixture was combined with 200 μL of acetonitrile containing internal standard and vortexed for 5 min at 1200 rpm, then centrifuged for 10 min at 4000 rpm. The supernatant was diluted 2 fold with water and injected on LC-MS/MS. The sample mixture was evaluated by LC-MS/MS using 10 mM ammonium acetate with 0.100 FA as the aqueous mobile phase, and methanol as the organic mobile phase.
(Liver microsomes are vesicles of endoplasmic reticulum, rich in cytochrome P450 enzymes.)

Data set [2] is described as follows: Stability in mouse liver microsomes. The format is in vitro ADME. The procedure: as §1
Half-Life Mouse Microsomes:
Compounds were evaluated in mouse liver microsomes following a similar procedure as described above for human liver microsomes. A similar procedure could be used to evaluate compounds in rat liver microsomes.

In data set [3] the test system is SREBP. In words: Reporter Screening Assay (SRE-luciferase reporter, HepG2). Type of data set: cell-based. The note with it: Homo sapiens; SRE-luciferase reporter HepG2 cells, 24 hours, 0.01 uM to 10 uM; read-out: I: Reporter Screening Assay (Ave EC50 (nM)). The procedure:
Reporter Screening Assay: This assay was used to evaluate the effect on transcriptional activity SREBP of selected compounds using an SRE-luciferase reporter construct. On day 1, 10,000 cells were seeded in a 96 well (white) plate as per the plate map in Growth media without antibiotics. Cells were incubated at 37° C. for 8 hours. After 8 hours, cells were washed with DPBS for complete removal of FBS. DPBS was completely removed and Growth media was replaced with phenol free treatment medium (90 μl) with different FBS concentrations. The cells were then incubated at 37° C. for 24 hours with varying doses (0.01 uM to 10 uM) of compounds. Then a Luciferase assay was performed.
Reagents for performing Luciferase assay were stored at −20° C. To a tube of lyophilized assay substrate was added 1 mL Substrate Solvent and mixed well. The Substrate tube after reconstitution was covered with aluminum foil so as to keep it protected from light. The assay buffer was thawed to room temperature. To 20 mL Assay Buffer was added 200 μL of reconstituted 100× Substrate and mixed well. The reconstituted substrate as well as the assay solution (buffer+substrate) was protected from light throughout the procedure by keeping it covered with aluminum foil. Using a multi-channel pipette, 100 μL Assay Solution (buffer+substrate) was added directly to each sample well in Plate 1, which was incubated for 30 min (plate was covered with aluminum foil). After 30 min incubation, the plate was read for total luminescence. Each well was read for 2 seconds in a plate luminometer. (Microplate reader Envision Microplate reader from Perkin Elmer). Precaution was taken to incubate plate exactly for 30 min prior to reading on the plate reader.
SREBPv1 Reporter cell line: HepG2—#32251. Growth Medium: MEM (Corning 10-010), 10% FBS, 1% GlutaMax (Invitrogen Catalog #35050061), […] (Invitrogen Catalog # A1113803) and 1% Penicillin-Streptomycin (Pen-Strep). Treatment Media: Phenol-free MEM (Invitrogen Catalog #51200-038) and 1% GlutaMax (Invitrogen Catalog #35050061). Luciferase Assay: LightSwitch Luciferase Assay Kit (Catalog #32032). LDH assay: Pierce LDH Cytotoxicity Assay Kit (Catalog # SD249616).

In the case of `CC(C)OC(=O)Nc1ccc(-c2cc(-c3ccnc(OC4CC4)c3)cs2)c(Cl)c1` [Compound I-9060, isopropyl (3-chloro-4-(4-(2-cyclopropoxypyridin-4-yl)thiophen-2-yl)phenyl)carbamate], the “percent of compound remaining after 60 min in human liver microsomes” value (from here on “percent of compound remaining”) in data set [1] is “+++ (>60.1 = +++)”. The “percent parent remaining after 60 min in liver microsomes” value (“percent parent remaining after 60 min” below) in data set [2] is listed as “+++ (>60.1 = +++)”. Further, in data set [3], the EC50 (commonly the concentration giving half of the maximal effect) was less than 249 nM.
Take `CC(C)OC(=O)Nc1ccc(-c2cc(-c3ccnc4c3OCCO4)cs2)c(Cl)c1` [Compound I-9062, isopropyl (3-chloro-4-(4-(2,3-dihydro-[1,4]dioxino[2,3-b]pyridin-8-yl)thiophen-2-yl)phenyl)carbamate]: the “percent of compound remaining” value in data set [1] was “+++ (>60.1 = +++)”. The “percent parent remaining after 60 min” value in data set [2] is “+++ (>60.1 = +++)”. Moreover, the concentration giving a half-maximal response (EC50) in data set [3] is less than 249 nM.
With `CC(C)(O)c1cc(-c2csc(-c3ccc(NS(C)(=O)=O)cc3Cl)c2)ccn1` [Compound I-9064, N-(3-chloro-4-(4-(2-(2-hydroxypropan-2-yl)pyridin-4-yl)thiophen-2-yl)phenyl)methanesulfonamide], the “percent of compound remaining” value in data set [1] is reported as “+++ (>60.1 = +++)”. The “percent parent remaining after 60 min” value in data set [2] is recorded as “+++ (>60.1 = +++)”. Also, in data set [3], the EC50 is less than 249 nM.
Regarding `CC(C)(O)c1cc(-c2csc(-c3ccc(NC(=O)OC4CC4)cc3Cl)c2)ccn1` [Compound I-9065, cyclopropyl (3-chloro-4-(4-(2-(2-hydroxypropan-2-yl)pyridin-4-yl)thiophen-2-yl)phenyl)carbamate], the “percent of compound remaining” value in data set [1] is “+++ (>60.1 = +++)”. Further, in data set [2], the “percent parent remaining after 60 min” value was “+++ (>60.1 = +++)”. Moreover, the half-maximal effective concentration (EC50) in data set [3] is more than 500 nM.
Turning to `CC(C)(O)C(O)c1cc(-c2csc(-c3ccc(NS(C)(=O)=O)cc3Cl)c2)ccn1` (stereo not drawn) [Compound I-9075, N-(3-chloro-4-(4-(2-(1,2-dihydroxy-2-methylpropyl)pyridin-4-yl)thiophen-2-yl)phenyl)methanesulfonamide], the “percent of compound remaining” value in data set [1] is “+++ (>60.1 = +++)”. For the same compound, in data set [2], the “percent parent remaining after 60 min” value is “+++ (>60.1 = +++)”. The EC50 in data set [3] is more than 500 nM.
As to `O=C(Nc1ccc(-c2cc(-c3ccnc(C4(CO)CC4)c3)cs2)c(Cl)c1)OC1CC1` [Compound I-9082, cyclopropyl (3-chloro-4-(4-(2-(1-(hydroxymethyl)cyclopropyl)pyridin-4-yl)thiophen-2-yl)phenyl)carbamate], in data set [1], the “percent of compound remaining” value was “+++ (>60.1 = +++)”. The “percent parent remaining after 60 min” value in data set [2] is listed as “++ (30.1-60 = ++)”. The 50% effective concentration (EC50) in data set [3] is more than 500 nM.
Turning to `CC(C)(O)Cc1cc(-c2cc(-c3ccc(NS(C)(=O)=O)cc3Cl)sc2F)ccn1` [Compound I-9085, N-(3-chloro-4-(5-fluoro-4-(2-(2-hydroxy-2-methylpropyl)pyridin-4-yl)thiophen-2-yl)phenyl)methanesulfonamide], the “percent of compound remaining” value in data set [1] was “+++ (>60.1 = +++)”. Moreover, the “percent parent remaining after 60 min” value in data set [2] was “+++ (>60.1 = +++)”. Besides, the EC50 in data set [3] was more than 500 nM.
`CC(O)(CO)c1cc(-c2csc(-c3ccc(NS(C)(=O)=O)cc3Cl)c2)ccn1` (stereo not drawn) [Compound I-9088, N-(3-chloro-4-(4-(2-(1,2-dihydroxypropan-2-yl)pyridin-4-yl)thiophen-2-yl)phenyl)methanesulfonamide]: in data set [1], the “percent of compound remaining” value is “+++ (>60.1 = +++)”. Further, the “percent parent remaining after 60 min” value in data set [2] is listed as “+++ (>60.1 = +++)”. Moreover, the EC50 in data set [3] is more than 500 nM.
For `Cc1sc(-c2ccc(NS(C)(=O)=O)cc2Cl)cc1-c1ccnc(CC(C)(C)O)c1` [Compound I-9091, N-(3-chloro-4-(4-(2-(2-hydroxy-2-methylpropyl)pyridin-4-yl)-5-methylthiophen-2-yl)phenyl)methanesulfonamide], the “percent of compound remaining” value in data set [1] is on record as “+++ (>60.1 = +++)”. Also, the “percent parent remaining after 60 min” value in data set [2] was “+++ (>60.1 = +++)”. Besides, the EC50 in data set [3] was more than 500 nM.
Turning to `CS(=O)(=O)Nc1ccc(-c2cc(-c3ccnc(O[C@@H]4COC[C@@H]4O)c3)cs2)c(Cl)c1` [Compound I-9108, N-(3-chloro-4-(4-(2-(((3R,4S)-4-hydroxytetrahydrofuran-3-yl)oxy)pyridin-4-yl)thiophen-2-yl)phenyl)methanesulfonamide], the “percent of compound remaining” value in data set [1] was “+++ (>60.1 = +++)”. In addition, the “percent parent remaining after 60 min” value in data set [2] was “+++ (>60.1 = +++)”. Besides, the EC50 in data set [3] was more than 500 nM.
